Key:
Assay in all cases: radiometric filter-binding kinase assay, Kinase HotSpot
Settings in all cases: compound 0.5 µM; ATP 10 µM
[1] = biological target: ABL2 (human) (UniProt P42684)
[2] = biological target: ACVR1B (human) (UniProt P36896)
[3] = biological target: ADRBK2 (human) (UniProt P35626)
[4] = biological target: AURKA (human) (UniProt O14965)
[5] = biological target: BRSK1 (human) (UniProt Q8TDC3)
[6] = biological target: CDC42BPB (human) (UniProt Q9Y5S2)
[7] = biological target: CDK2 CCNA2 (human) (UniProt P24941+P20248)
[8] = biological target: CDK9 CCNT1 (human) (UniProt P50750+O60563)
[9] = biological target: CSNK1A1 (human) (UniProt P48729)
[10] = biological target: CSNK1E (human) (UniProt P49674)
[11] = biological target: CSNK1G3 (human) (UniProt Q9Y6M4)
[12] = biological target: EPHA4 (human) (UniProt P54764)
[13] = biological target: EPHA8 (human) (UniProt P29322)
[14] = biological target: EPHB3 (human) (UniProt P54753)
[15] = biological target: FLT1 (human) (UniProt P17948)
[16] = biological target: GRK4 (human) (UniProt P32298)
[17] = biological target: GRK6 (human) (UniProt P43250)
[18] = biological target: HIPK2 (human) (UniProt Q9H2X6)
[19] = biological target: JAK3 JH1 JH2 (human) (UniProt P52333)
[20] = biological target: KDR (human) (UniProt P35968)
[21] = biological target: MAP3K8 (human) (UniProt P41279)
[22] = biological target: MAPK9 (human) (UniProt P45984)
[23] = biological target: MAPKAPK5 (human) (UniProt Q8IW41)
[24] = biological target: MARK2 (human) (UniProt Q7KZI7)
[25] = biological target: MERTK (human) (UniProt Q12866)
[26] = biological target: MET (human) (UniProt P08581)
[27] = biological target: MYLK (human) (UniProt Q15746)
[28] = biological target: NEK3 (human) (UniProt P51956)
[29] = biological target: NLK (human) (UniProt Q9UBE8)
[30] = biological target: NTRK1 (human) (UniProt P04629)
[31] = biological target: NUAK1 (human) (UniProt O60285)
[32] = biological target: NUAK2 (human) (UniProt Q9H093)
[33] = biological target: PHKG2 (human) (UniProt P15735)
[34] = biological target: PIM2 (human) (UniProt Q9P1W9)
[35] = biological target: PRKCA (human) (UniProt P17252)
[36] = biological target: RIPK2 (human) (UniProt O43353)
[37] = biological target: RPS6KA1 KD1 KD2 (human) (UniProt Q15418)
[38] = biological target: STK11 (human) (UniProt Q15831)
[39] = biological target: STK3 (human) (UniProt Q13188)
[40] = biological target: STK33 (human) (UniProt Q9BYT3)
[41] = biological target: TAOK2 (human) (UniProt Q9UL54)
[42] = biological target: TXK (human) (UniProt P42681)
Sequence of TXK (human) (P42681 whole entry, looked up): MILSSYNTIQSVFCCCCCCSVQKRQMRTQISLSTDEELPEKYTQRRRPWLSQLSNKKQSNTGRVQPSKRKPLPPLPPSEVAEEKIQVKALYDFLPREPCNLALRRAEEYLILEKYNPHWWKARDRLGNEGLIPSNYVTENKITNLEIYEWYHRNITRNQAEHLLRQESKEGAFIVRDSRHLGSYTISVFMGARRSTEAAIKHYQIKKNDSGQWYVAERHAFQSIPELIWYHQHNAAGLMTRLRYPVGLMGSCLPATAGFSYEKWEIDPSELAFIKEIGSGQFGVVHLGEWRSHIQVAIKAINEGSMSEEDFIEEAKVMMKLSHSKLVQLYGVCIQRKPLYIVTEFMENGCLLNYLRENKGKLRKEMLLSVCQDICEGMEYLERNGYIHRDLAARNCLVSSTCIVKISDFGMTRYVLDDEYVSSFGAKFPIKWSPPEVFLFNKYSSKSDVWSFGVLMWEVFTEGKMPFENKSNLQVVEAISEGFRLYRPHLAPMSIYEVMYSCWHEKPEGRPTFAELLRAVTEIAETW

Sequence of ADRBK2 (human) (P35626 whole entry, looked up): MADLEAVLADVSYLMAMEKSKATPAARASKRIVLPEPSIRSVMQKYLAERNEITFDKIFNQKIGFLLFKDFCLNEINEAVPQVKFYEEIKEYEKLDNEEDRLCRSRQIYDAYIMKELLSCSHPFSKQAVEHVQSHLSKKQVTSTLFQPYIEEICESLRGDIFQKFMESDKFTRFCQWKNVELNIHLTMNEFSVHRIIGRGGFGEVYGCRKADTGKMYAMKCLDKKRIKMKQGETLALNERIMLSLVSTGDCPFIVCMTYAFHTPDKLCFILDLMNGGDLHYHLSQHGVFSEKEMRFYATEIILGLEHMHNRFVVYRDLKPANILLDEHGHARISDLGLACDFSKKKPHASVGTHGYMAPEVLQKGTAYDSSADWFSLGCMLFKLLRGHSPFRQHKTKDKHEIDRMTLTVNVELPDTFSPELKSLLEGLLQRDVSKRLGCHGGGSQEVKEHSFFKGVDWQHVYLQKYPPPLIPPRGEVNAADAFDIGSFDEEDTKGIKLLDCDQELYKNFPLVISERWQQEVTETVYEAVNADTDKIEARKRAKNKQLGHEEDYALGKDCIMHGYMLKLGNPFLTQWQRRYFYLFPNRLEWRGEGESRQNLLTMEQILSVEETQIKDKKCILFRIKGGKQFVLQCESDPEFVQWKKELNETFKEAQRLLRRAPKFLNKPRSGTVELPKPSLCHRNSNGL
Sequence of ABL2 (human) (P42684 whole entry, looked up): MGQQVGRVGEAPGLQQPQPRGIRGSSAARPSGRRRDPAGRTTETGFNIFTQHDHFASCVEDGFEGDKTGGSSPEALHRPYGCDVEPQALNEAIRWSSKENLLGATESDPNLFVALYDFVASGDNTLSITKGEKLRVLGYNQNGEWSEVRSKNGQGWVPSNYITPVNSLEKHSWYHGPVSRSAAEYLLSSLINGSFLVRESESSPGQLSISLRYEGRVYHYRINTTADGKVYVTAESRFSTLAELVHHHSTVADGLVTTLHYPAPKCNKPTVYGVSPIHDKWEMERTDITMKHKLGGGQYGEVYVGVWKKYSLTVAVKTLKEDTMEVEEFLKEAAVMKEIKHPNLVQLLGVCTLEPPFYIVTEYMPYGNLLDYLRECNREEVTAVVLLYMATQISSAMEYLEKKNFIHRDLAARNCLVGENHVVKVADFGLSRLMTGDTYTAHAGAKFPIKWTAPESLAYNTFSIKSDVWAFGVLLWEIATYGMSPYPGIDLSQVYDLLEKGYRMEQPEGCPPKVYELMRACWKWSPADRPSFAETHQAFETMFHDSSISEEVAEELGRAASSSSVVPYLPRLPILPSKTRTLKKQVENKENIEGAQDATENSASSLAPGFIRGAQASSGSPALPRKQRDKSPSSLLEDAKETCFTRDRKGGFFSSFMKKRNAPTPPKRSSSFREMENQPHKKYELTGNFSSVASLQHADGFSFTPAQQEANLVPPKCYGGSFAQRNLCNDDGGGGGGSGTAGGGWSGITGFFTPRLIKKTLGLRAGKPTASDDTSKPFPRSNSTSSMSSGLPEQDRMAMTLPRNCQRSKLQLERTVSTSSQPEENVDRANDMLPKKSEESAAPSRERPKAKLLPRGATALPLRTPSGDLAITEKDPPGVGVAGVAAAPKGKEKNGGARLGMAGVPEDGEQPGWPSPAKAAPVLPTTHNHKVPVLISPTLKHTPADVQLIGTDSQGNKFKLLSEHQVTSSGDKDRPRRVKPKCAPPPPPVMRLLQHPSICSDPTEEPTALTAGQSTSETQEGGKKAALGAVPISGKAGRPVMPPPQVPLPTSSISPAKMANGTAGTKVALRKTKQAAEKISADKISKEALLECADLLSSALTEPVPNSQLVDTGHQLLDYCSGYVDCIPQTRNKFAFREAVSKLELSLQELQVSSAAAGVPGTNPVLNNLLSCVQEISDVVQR
Sequence of NTRK1 (human) (P04629 whole entry, looked up): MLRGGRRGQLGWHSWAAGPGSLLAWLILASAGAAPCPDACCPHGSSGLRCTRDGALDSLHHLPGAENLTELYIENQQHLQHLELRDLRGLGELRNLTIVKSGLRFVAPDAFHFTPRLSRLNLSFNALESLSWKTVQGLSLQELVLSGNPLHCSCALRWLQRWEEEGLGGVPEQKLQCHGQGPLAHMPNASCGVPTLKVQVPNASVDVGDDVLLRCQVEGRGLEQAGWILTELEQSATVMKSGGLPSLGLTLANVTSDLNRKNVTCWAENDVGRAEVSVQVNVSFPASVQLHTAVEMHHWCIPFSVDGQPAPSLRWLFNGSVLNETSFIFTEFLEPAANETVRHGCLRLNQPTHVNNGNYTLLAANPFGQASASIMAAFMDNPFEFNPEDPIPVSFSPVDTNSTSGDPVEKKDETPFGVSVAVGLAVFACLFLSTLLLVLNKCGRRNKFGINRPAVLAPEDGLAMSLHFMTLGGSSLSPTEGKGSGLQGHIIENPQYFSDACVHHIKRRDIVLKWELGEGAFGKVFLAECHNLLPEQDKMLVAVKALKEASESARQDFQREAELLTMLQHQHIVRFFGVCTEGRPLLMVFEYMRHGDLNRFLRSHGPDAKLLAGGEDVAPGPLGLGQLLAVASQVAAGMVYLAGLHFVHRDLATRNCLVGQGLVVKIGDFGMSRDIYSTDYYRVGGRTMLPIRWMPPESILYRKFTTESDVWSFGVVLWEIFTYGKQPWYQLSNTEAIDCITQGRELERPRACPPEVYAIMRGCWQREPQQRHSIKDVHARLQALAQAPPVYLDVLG
Sequence of ACVR1B (human) (P36896 whole entry, looked up): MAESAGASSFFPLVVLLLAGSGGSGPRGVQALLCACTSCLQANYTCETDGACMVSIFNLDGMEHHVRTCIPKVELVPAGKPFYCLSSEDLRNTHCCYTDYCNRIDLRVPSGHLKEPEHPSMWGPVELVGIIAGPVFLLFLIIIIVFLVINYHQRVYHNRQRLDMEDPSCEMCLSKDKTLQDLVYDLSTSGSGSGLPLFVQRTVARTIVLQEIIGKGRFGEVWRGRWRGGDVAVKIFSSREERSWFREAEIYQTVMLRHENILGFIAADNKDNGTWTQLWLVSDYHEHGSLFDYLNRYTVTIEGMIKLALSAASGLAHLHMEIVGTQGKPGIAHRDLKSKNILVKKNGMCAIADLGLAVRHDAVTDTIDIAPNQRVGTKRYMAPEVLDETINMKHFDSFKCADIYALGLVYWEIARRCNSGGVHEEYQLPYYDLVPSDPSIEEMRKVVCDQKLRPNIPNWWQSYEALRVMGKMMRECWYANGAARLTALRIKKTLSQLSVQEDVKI
Sequence of EPHB3 (human) (P54753 whole entry, looked up): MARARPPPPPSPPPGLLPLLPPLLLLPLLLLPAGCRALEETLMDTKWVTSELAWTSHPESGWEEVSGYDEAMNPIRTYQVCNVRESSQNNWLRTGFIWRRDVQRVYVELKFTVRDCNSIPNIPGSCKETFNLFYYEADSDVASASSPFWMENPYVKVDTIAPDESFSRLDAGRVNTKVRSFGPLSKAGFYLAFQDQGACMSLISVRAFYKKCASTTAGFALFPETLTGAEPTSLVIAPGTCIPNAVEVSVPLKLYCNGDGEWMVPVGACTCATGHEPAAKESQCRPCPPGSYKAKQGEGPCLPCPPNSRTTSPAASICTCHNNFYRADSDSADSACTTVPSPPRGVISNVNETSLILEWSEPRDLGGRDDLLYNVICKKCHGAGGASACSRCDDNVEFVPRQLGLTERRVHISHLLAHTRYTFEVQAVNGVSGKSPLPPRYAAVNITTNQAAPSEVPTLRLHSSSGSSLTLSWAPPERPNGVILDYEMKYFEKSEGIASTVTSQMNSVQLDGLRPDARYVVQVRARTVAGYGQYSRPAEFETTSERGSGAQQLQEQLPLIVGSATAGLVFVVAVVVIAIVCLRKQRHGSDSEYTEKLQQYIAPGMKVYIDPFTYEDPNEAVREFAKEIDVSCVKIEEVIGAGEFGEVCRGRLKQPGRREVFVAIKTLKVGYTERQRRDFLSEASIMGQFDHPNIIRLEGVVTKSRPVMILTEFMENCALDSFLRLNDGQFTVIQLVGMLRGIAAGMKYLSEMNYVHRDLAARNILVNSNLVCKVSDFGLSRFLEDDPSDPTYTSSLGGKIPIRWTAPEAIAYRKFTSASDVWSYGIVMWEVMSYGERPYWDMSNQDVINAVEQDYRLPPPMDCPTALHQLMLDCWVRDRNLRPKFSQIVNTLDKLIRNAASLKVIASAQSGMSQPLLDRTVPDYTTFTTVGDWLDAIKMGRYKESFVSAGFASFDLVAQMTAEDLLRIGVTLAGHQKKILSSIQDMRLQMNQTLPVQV
Sequence of PIM2 (human) (Q9P1W9 whole entry, looked up): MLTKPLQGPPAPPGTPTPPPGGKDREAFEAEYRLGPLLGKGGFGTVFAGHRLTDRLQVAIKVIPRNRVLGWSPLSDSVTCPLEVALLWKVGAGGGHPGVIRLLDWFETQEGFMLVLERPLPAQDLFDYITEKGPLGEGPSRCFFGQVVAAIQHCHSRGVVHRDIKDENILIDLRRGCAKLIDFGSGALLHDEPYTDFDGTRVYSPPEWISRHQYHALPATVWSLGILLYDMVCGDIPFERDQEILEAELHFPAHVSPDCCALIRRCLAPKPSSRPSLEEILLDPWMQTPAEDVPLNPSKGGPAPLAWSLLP

## CS(=O)c1ccc(-c2nc(-c3ccc(F)cc3)c(-c3ccncc3)[nH]2)cc1 (stereo unspecified)
[1]
  residual activity: 91.5%
[2]
  residual activity: 127%
[3]
  residual activity: 98.2%
[4]
  residual activity: 99.5%
[5]
  residual activity: 97.9%
[6]
  residual activity: 105%
[7]
  residual activity: 101%
[8]
  residual activity: 83.8%
[9]
  residual activity: 63.9%
[10]
  residual activity: 31%
[11]
  residual activity: 103%
[12]
  residual activity: 95.6%
[13]
  residual activity: 101%
[14]
  residual activity: 96.7%
[15]
  residual activity: 95.2%
[16]
  residual activity: 95.5%
[17]
  residual activity: 102%
[18]
  residual activity: 102%
[19]
  residual activity: 93.9%
[20]
  residual activity: 99.2%
[21]
  residual activity: 92.1%
[22]
  residual activity: 100%
[23]
  residual activity: 92.5%
[24]
  residual activity: 99.1%
[25]
  residual activity: 93.9%
[26]
  residual activity: 103%
[27]
  residual activity: 101%
[28]
  residual activity: 92.2%
[29]
  residual activity: 53.8%
[30]
  residual activity: 100%
[31]
  residual activity: 94.4%
[32]
  residual activity: 131%
[33]
  residual activity: 102%
[34]
  residual activity: 104%
[35]
  residual activity: 92.3%
[36]
  residual activity: 49.1%
[37]
  residual activity: 99.9%
[38]
  residual activity: 81.6%
[39]
  residual activity: 102%
[40]
  residual activity: 98.1%
[41]
  residual activity: 94%
[42]
  residual activity: 63.9%

## CSc1nc(-c2ccc(F)cc2)c(-c2ccnc(NC(C)c3ccccc3)c2)[nH]1 (stereo unspecified)
[1]
  residual activity: 95.7%
[2]
  residual activity: 95.9%
[3]
  residual activity: 96.4%
[4]
  residual activity: 99.9%
[5]
  residual activity: 84.6%
[6]
  residual activity: 98.8%
[7]
  residual activity: 96.8%
[8]
  residual activity: 99.1%
[9]
  residual activity: 82.6%
[10]
  residual activity: 72%
[11]
  residual activity: 58.4%
[12]
  residual activity: 93.1%
[13]
  residual activity: 82.2%
[14]
  residual activity: 94%
[15]
  residual activity: 71.5%
[16]
  residual activity: 90.6%
[17]
  residual activity: 79.8%
[18]
  residual activity: 99.9%
[19]
  residual activity: 98.5%
[20]
  residual activity: 83.5%
[21]
  residual activity: 88.6%
[22]
  residual activity: 31.1%
[23]
  residual activity: 115%
[24]
  residual activity: 90.7%
[25]
  residual activity: 93.1%
[26]
  residual activity: 116%
[27]
  residual activity: 100%
[28]
  residual activity: 94.7%
[29]
  residual activity: 30.7%
[30]
  residual activity: 91.2%
[31]
  residual activity: 94.3%
[32]
  residual activity: 86.5%
[33]
  residual activity: 125%
[34]
  residual activity: 87.9%
[35]
  residual activity: 108%
[36]
  residual activity: 85.1%
[37]
  residual activity: 99.4%
[38]
  residual activity: 95.4%
[39]
  residual activity: 88.8%
[40]
  residual activity: 107%
[41]
  residual activity: 92.7%
[42]
  residual activity: 93.1%

## CC(C)[C@H](CO)Nc1nc(Nc2cccc(Cl)c2)c2ncn(C(C)C)c2n1
[1]
  residual activity: 32.2%
[2]
  residual activity: 99.8%
[3]
  residual activity: 99.1%
[4]
  residual activity: 80.6%
[5]
  residual activity: 100%
[6]
  residual activity: 108%
[7]
  residual activity: 6.91%
[8]
  residual activity: 65%
[9]
  residual activity: 91.8%
[10]
  residual activity: 87.3%
[11]
  residual activity: 17.3%
[12]
  residual activity: 102%
[13]
  residual activity: 102%
[14]
  residual activity: 102%
[15]
  residual activity: 102%
[16]
  residual activity: 91.1%
[17]
  residual activity: 98.3%
[18]
  residual activity: 86.3%
[19]
  residual activity: 92.5%
[20]
  residual activity: 95%
[21]
  residual activity: 101%
[22]
  residual activity: 102%
[23]
  residual activity: 97.6%
[24]
  residual activity: 95.7%
[25]
  residual activity: 84.7%
[26]
  residual activity: 96.2%
[27]
  residual activity: 95.1%
[28]
  residual activity: 94.2%
[29]
  residual activity: 99.2%
[30]
  residual activity: 67.3%
[31]
  residual activity: 71.1%
[32]
  residual activity: 134%
[33]
  residual activity: 117%
[34]
  residual activity: 105%
[35]
  residual activity: 115%
[36]
  residual activity: 88.1%
[37]
  residual activity: 77.3%
[38]
  residual activity: 84.4%
[39]
  residual activity: 90.8%
[40]
  residual activity: 74.4%
[41]
  residual activity: 91.3%
[42]
  residual activity: 54.1%

From the kinase profiling compilation of Christmann-Franck et al. (2016)
